Measured values reported in ChEMBL document CHEMBL1136874, “Novel carbazole and acyl-indole antimitotics” (Bioorg Med Chem Lett, 2009).
The source made the active and inactive calls. No cut-off for these calls is given here.

Key:
[1] = system: MCF7; test: Cytotoxicity against human MCF7 cells; type: functional
[2] = system: SW-620; test: Cytotoxicity against human SW620 cells; type: functional
[3] = Displacement of [3H]colchicine from tubulin
[4] = system: PC-3; test: Cytotoxicity against human PC3 cells; type: functional
[5] = system: HT-29; test: Cytotoxicity against human HT-29 cells; type: functional
[6] = system: K562; test: Cytotoxicity against human K562 cells; type: functional
[7] = Cell cycle arrest in human leukemic cells assessed as mitotic block by cytometry; type: functional, cell-based; conditions: Leukemia cell
[8] = system: Leukemia cell; test: Induction of apoptosis in human leukemic cells; type: functional, cell-based
[9] = Displacement of labeled vinblastine from tubulin
[10] = system: Leukemia cell; test: Increase in phospho-Histone H3-ser10 level in human leukemic cells by flow cytometry; type: functional, cell-based
[11] = Cell cycle arrest in human leukemic cells assessed as blockage in G2/M phase by high content cellular analysis; type: functional, cell-based; conditions: Leukemia cell
[12] = Inhibition of tubulin polymerization

In the case of `CN[C@H]1CCc2cc(OC)c(OC)c(OC)c2-c2ccc(OC)c(=O)cc21` [DEMECOLCINE], the Activity [1] is reported as 7.8 nM, the Activity [2] is reported as 31 nM and the IC50 [3] is reported as 3580 nM. The Activity [4] was 31 nM, the Activity [5] was 25 nM and the Activity [6] was 16 nM.
For `N#Cc1ccc(-n2c3c(c4ccccc42)C(=O)CCC3)c(C(F)(F)F)c1`, the Activity [7] was > 10 µM.
`NC(=O)c1ccc(-n2c3c(c4ccccc42)C(=O)CCC3)c(Cl)c1` gave an Activity [1] of 85 nM, an Activity [2] of 94 nM and an Activity [7] of 0.42 µM. It also gave an Activity [4] of 140 nM, an Activity [5] of 300 nM and an Activity [6] of 210 nM.
In the case of `COc1cc(C(N)=O)ccc1-n1c2c(c3ccccc31)C(=O)CCC2`, the Activity [7] is reported as 0.42 µM.
With `C=CCNc1cc(-n2c3c(c4ccccc42)C(=O)CCC3)ccc1C(N)=O` the Activity [7] was 0.99 µM.
For `NC(=O)c1ccc(-n2c3c(c4ccccc42)C(=O)CCC3)cc1Br`, the Activity [7] was > 10 µM.
For `COc1cc2c(c(OC)c1OC)-c1ccc(OC)c(=O)cc1[C@@H](NC(C)=O)CC2`, the Activity [7] was 0.043 µM.
In the case of `NC(=O)c1ccc(-n2c3c(c4ccccc42)C(=O)CCC3)cc1NCc1ccccc1`, the Activity [7] is reported as 6.2 µM.
`COc1cc(C(N)=O)ccc1-n1cc(C(C)=O)c2ccccc21` gave an Activity [7] of 0.17 µM.
`CC(=O)c1cn(-c2ccc(C(N)=O)cc2Cl)c2cc(Cl)ccc12` showed an Activity [1] of 1.2 nM, an Activity [2] of 6.5 nM and an Activity [7] of 0.21 µM. The Activity [4] was 2.2 nM, the Activity [5] was 9.3 nM and the Activity [6] was 0.085 nM.
`COc1cc(-n2cc(C(C)=O)c3ccccc32)ccc1C(N)=O` gave an Activity [7] of 0.1 µM.
Work on `NC(=O)c1ccc(-n2c3c(c4ccccc42)C(=O)CCC3)c(F)c1` yielded an Activity [7] of 5 µM.
With `CC(=O)Nc1ccc(-n2c3c(c4ccccc42)C(=O)CCC3)c(Cl)c1` the Activity [7] was 0.41 µM.
For `COc1cc(-n2c3c(c4ccccc42)C(=O)CCC3)ccc1C(N)=O`, the Activity [7] was > 10 µM.
For `NC(=O)Nc1ccc(-n2c3c(c4ccccc42)C(=O)CCC3)c(Cl)c1`, the Activity [1] was 0.87 nM, the Activity [8] was “Active” and the Activity [2] was 15 nM. For the same compound, the Activity [7] was 0.12 µM, the IC50 [3] was 1610 nM and the Activity [9] was “inactive”. The Activity [4] was 790 nM, the Activity [5] was 3.2 nM and the Activity [10] was “Active”. The Activity [6] was 5.5 nM, the Activity [11] was “Active” and the IC50 [12] was 1640 nM.
With `NC(=O)c1ccc(-n2c3c(c4ccccc42)C(=O)CCC3)cc1` the Activity [1] was 2300 nM, the Activity [2] was 1200 nM and the Activity [7] was > 10 µM. It also gave an Activity [4] of 7000 nM, an Activity [5] of 4500 nM and an Activity [6] of 2000 nM.
Compound `Cc1cc(C(N)=O)ccc1-n1c2c(c3ccccc31)C(=O)CCC2` has an Activity [7] of 0.96 µM.
Compound `NC(=O)c1ccc(-n2c3c(c4ccccc42)C(=O)CCC3)c(N)c1` has an Activity [7] of 10 µM.
With `O=C(O)c1ccc(-n2c3c(c4ccccc42)C(=O)CCC3)c(Br)c1` the Activity [7] was > 10 µM.
Compound `CC[C@]1(O)C[C@@H]2CN(CCc3c([nH]c4ccccc34)[C@@](C(=O)OC)(c3cc4c(cc3OC)N(C)[C@H]3[C@@](O)(C(=O)OC)[C@H](OC(C)=O)[C@]5(CC)C=CCN6CC[C@]43[C@@H]65)C2)C1` [VINBLASTINE] has an IC50 [12] of 1150 nM.
For `N=C(NO)c1ccc(-n2c3c(c4ccccc42)C(=O)CCC3)c(Br)c1`, the Activity [7] was 2 µM.
For `CC(=O)c1cn(-c2ccc(C(N)=O)cc2Cl)c2ccccc12`, the Activity [7] was 0.14 µM.
With `NC(=O)c1ccc(-n2c3c(c4ccccc42)C(=O)CCC3)c(-c2ccccc2)c1` the Activity [7] was > 10 µM.
Compound `NC(=O)c1ccc(-n2c3c(c4ccccc42)C(=O)CCC3)c(C(F)(F)F)c1` has an Activity [7] of 0.24 µM.
Work on `NC(=O)c1ccc(-n2c3c(c4ccccc42)C(=O)CCC3)c(Br)c1` yielded an Activity [7] of 0.15 µM.
For `CC(C)C(=O)c1cn(-c2ccc(C(N)=O)cc2Cl)c2ccccc12`, the Activity [7] was 5 µM.
